Where “and” joins values, the source holds several entries; their conditions need not be identical. Equal values may be shown once. Numbers after ± are expanded uncertainties.
Settings: Liquid, transient hot wire

O=C(C(F)(F)C(F)(F)F)C(F)(C(F)(F)F)C(F)(F)F [dodecafluoro-2-methylpentan-3-one]
thermal conductivity (242.34 K, 5849 kPa): 0.06998 ± 0.0014 W/m/K
thermal conductivity (242.34 K, 5853 kPa): 0.06965 ± 0.0014 W/m/K
thermal conductivity (242.35 K, 208 kPa): 0.06798 ± 0.0014 W/m/K
thermal conductivity (242.35 K, 212 kPa): 0.06825 ± 0.0014 W/m/K
thermal conductivity (242.58 K, 60304 kPa): 0.08223 ± 0.0017 W/m/K
thermal conductivity (242.58 K, 60314 kPa): 0.08199 ± 0.0017 W/m/K
thermal conductivity (242.59 K, 33710 kPa): 0.0767 ± 0.0016 W/m/K
thermal conductivity (242.59 K, 50797 kPa): 0.08019 ± 0.0016 W/m/K
thermal conductivity (242.59 K, 50816 kPa): 0.07983 ± 0.0016 W/m/K
thermal conductivity (242.59 K, 68418 kPa): 0.08363 ± 0.0017 W/m/K
thermal conductivity (242.59 K, 68434 kPa): 0.08369 ± 0.0017 W/m/K
thermal conductivity (242.6 K, 33703 kPa): 0.07658 ± 0.0016 W/m/K
thermal conductivity (242.6 K, 41984 kPa): 0.07877 ± 0.0016 W/m/K
thermal conductivity (242.6 K, 41989 kPa): 0.07848 ± 0.0016 W/m/K
thermal conductivity (242.67 K, 25698 kPa): 0.07459 ± 0.0015 W/m/K
thermal conductivity (242.68 K, 25706 kPa): 0.07494 ± 0.0015 W/m/K
thermal conductivity (242.77 K, 18756 kPa): 0.073 ± 0.0015 W/m/K
thermal conductivity (242.77 K, 18761 kPa): 0.07312 ± 0.0015 W/m/K
thermal conductivity (242.79 K, 12031 kPa): 0.07146 ± 0.0015 W/m/K
thermal conductivity (242.8 K, 12030 kPa): 0.07148 ± 0.0015 W/m/K
thermal conductivity (242.91 K, 5853 kPa): 0.06968 ± 0.0014 W/m/K
thermal conductivity (242.91 K, 5856 kPa): 0.06976 ± 0.0014 W/m/K
thermal conductivity (242.92 K, 207 kPa): 0.06801 ± 0.0014 W/m/K
thermal conductivity (242.93 K, 208 kPa): 0.06804 ± 0.0014 W/m/K
thermal conductivity (243.11 K, 60298 kPa): 0.08226 ± 0.0017 W/m/K
thermal conductivity (243.11 K, 68406 kPa): 0.084 ± 0.0017 W/m/K
thermal conductivity (243.11 K, 68416 kPa): 0.08398 ± 0.0017 W/m/K
thermal conductivity (243.12 K, 60300 kPa): 0.082 ± 0.0017 W/m/K
thermal conductivity (243.13 K, 50796 kPa): 0.08047 ± 0.0016 W/m/K
thermal conductivity (243.13 K, 50797 kPa): 0.08042 ± 0.0016 W/m/K
thermal conductivity (243.16 K, 41981 kPa): 0.07861 ± 0.0016 W/m/K
thermal conductivity (243.16 K, 41982 kPa): 0.07868 ± 0.0016 W/m/K
thermal conductivity (243.17 K, 33693 kPa): 0.07674 ± 0.0016 W/m/K
thermal conductivity (243.17 K, 33696 kPa): 0.07679 ± 0.0016 W/m/K
thermal conductivity (243.25 K, 25695 kPa): 0.07494 ± 0.0015 W/m/K
thermal conductivity (243.26 K, 25691 kPa): 0.07494 ± 0.0015 W/m/K
thermal conductivity (243.36 K, 18758 kPa): 0.07321 ± 0.0015 W/m/K
thermal conductivity (243.36 K, 18761 kPa): 0.07324 ± 0.0015 W/m/K
thermal conductivity (243.39 K, 12032 kPa): 0.07131 ± 0.0015 W/m/K
thermal conductivity (243.41 K, 12030 kPa): 0.07139 ± 0.0015 W/m/K
thermal conductivity (243.52 K, 5859 kPa): 0.0695 ± 0.0014 W/m/K and 0.06954 ± 0.0014 W/m/K
thermal conductivity (243.55 K, 209 kPa): 0.06795 ± 0.0014 W/m/K
thermal conductivity (243.56 K, 209 kPa): 0.06794 ± 0.0014 W/m/K
thermal conductivity (243.69 K, 68395 kPa): 0.08376 ± 0.0017 W/m/K
thermal conductivity (243.69 K, 68403 kPa): 0.08352 ± 0.0017 W/m/K
thermal conductivity (243.7 K, 60284 kPa): 0.08212 ± 0.0017 W/m/K
thermal conductivity (243.71 K, 60287 kPa): 0.08216 ± 0.0017 W/m/K
thermal conductivity (243.73 K, 50783 kPa): 0.08028 ± 0.0016 W/m/K
thermal conductivity (243.74 K, 50794 kPa): 0.08029 ± 0.0016 W/m/K
thermal conductivity (243.77 K, 41976 kPa): 0.07861 ± 0.0016 W/m/K
thermal conductivity (243.77 K, 41985 kPa): 0.07849 ± 0.0016 W/m/K
thermal conductivity (243.8 K, 33690 kPa): 0.07668 ± 0.0016 W/m/K
thermal conductivity (243.8 K, 33707 kPa): 0.07668 ± 0.0016 W/m/K
thermal conductivity (271.75 K, 5167 kPa): 0.06405 ± 0.0013 W/m/K
thermal conductivity (271.76 K, 5170 kPa): 0.06371 ± 0.0013 W/m/K
thermal conductivity (271.8 K, 431 kPa): 0.06194 ± 0.0013 W/m/K
thermal conductivity (271.81 K, 411 kPa): 0.06198 ± 0.0013 W/m/K
thermal conductivity (271.99 K, 24357 kPa): 0.07109 ± 0.0015 W/m/K
thermal conductivity (271.99 K, 24380 kPa): 0.07115 ± 0.0015 W/m/K
thermal conductivity (272.01 K, 32229 kPa): 0.0734 ± 0.0015 W/m/K
thermal conductivity (272.01 K, 32230 kPa): 0.07317 ± 0.0015 W/m/K
thermal conductivity (272.03 K, 40370 kPa): 0.07538 ± 0.0015 W/m/K
thermal conductivity (272.04 K, 40373 kPa): 0.07501 ± 0.0015 W/m/K
thermal conductivity (272.04 K, 46123 kPa): 0.07637 ± 0.0016 W/m/K
thermal conductivity (272.05 K, 11155 kPa): 0.06578 ± 0.0014 W/m/K
thermal conductivity (272.05 K, 11165 kPa): 0.06595 ± 0.0014 W/m/K
thermal conductivity (272.05 K, 46118 kPa): 0.07672 ± 0.0016 W/m/K
thermal conductivity (272.06 K, 17558 kPa): 0.06827 ± 0.0014 W/m/K
thermal conductivity (272.07 K, 17554 kPa): 0.06805 ± 0.0014 W/m/K
thermal conductivity (272.15 K, 5158 kPa): 0.06391 ± 0.0013 W/m/K
thermal conductivity (272.16 K, 5173 kPa): 0.06421 ± 0.0013 W/m/K
thermal conductivity (272.21 K, 418 kPa): 0.06216 ± 0.0013 W/m/K
thermal conductivity (272.21 K, 421 kPa): 0.06256 ± 0.0013 W/m/K
thermal conductivity (272.49 K, 24363 kPa): 0.06931 ± 0.0014 W/m/K
thermal conductivity (272.5 K, 32236 kPa): 0.07245 ± 0.0015 W/m/K
thermal conductivity (272.5 K, 32238 kPa): 0.07194 ± 0.0015 W/m/K
thermal conductivity (272.5 K, 40381 kPa): 0.07419 ± 0.0015 W/m/K
thermal conductivity (272.51 K, 40379 kPa): 0.07408 ± 0.0015 W/m/K
thermal conductivity (272.52 K, 46113 kPa): 0.0755 ± 0.0015 W/m/K
thermal conductivity (272.52 K, 46119 kPa): 0.07509 ± 0.0015 W/m/K
thermal conductivity (272.58 K, 5167 kPa): 0.06402 ± 0.0013 W/m/K
thermal conductivity (272.58 K, 11163 kPa): 0.0662 ± 0.0014 W/m/K
thermal conductivity (272.58 K, 17548 kPa): 0.06807 ± 0.0014 W/m/K
thermal conductivity (272.58 K, 17564 kPa): 0.06792 ± 0.0014 W/m/K

Reference: the NIST ThermoML archive (doi:10.1021/acs.jced.8b00132)
